Literature values in patent US20170239173A1, “TRANSDERMAL ABSORPTION ENHANCER AND TRANSDERMAL ABSORPTION ENHANCEMENT AID” (ASAHI KASEI KABUSHIKI KAISHA, priority 2014, published 2017).
Several values for one entry are separate records, joined by “and”; a condition that tells them apart may be missing. Identical values can stand only once.

conditions: partition coefficient between water and 1-octanol; cited from earlier work

Row | SMILES | Log P
1 | CC(O)(P(=O)(O)O)P(=O)(O)O [etidronic acid] | −3.7
2 | Clc1cccc(Cl)c1N=C1NCCN1 [clonidine] | 1.6
3 | Nc1nc(N)c2nc(-c3ccccc3)c(N)nc2n1 [triamterene] | 1
4 | CCOC(=O)[C@H](CCc1ccccc1)N[C@@H](C)C(=O)N(CC(=O)O)C1Cc2ccccc2C1 [delapril] | 1.7
5 | CC(=O)SC[C@@H](C)C(=O)N1CCC[C@H]1C(=O)N[C@@H](Cc1ccccc1)C(=O)O [alacepril] | 2.1
6 | Oc1ccc(O)cc1 [hydroquinone] | −0.6
7 | NC(=O)NC1NC(=O)NC1=O (stereo not drawn) [allantoin] | −2.2
8 | COc1ccc(CCNC[C@H](O)c2ccc(O)cc2)cc1OC [denopamine] | 1.8
9 | O=C(O)c1cccnc1 [nicotinic acid] | 0.4
10 | NCCCC[C@H](N[C@@H](CCc1ccccc1)C(=O)O)C(=O)N1CCC[C@H]1C(=O)O [lisinopril] | −2.9 and −3.0
11 | CCOC(=O)[C@H](CCc1ccccc1)N[C@H]1CCCN2CCC[C@@H](C(=O)O)N2C1=O [cilazapril] | 0.6
12 | CCOC(=O)[C@H](CCc1ccccc1)N[C@@H](C)C(=O)N1C(=O)N(C)C[C@H]1C(=O)O [imidapril] | −0.7
13 | N[C@@H](CO)C(=O)O [serine] | −3.1
14 | CC(=O)Nc1ccc(CC(=O)O)cc1 [actarit] | 0.4
15 | Cc1ccc(N(CC2=NCCN2)c2cccc(O)c2)cc1 [phentolamine] | 2.6
16 | COc1ccc(C(=O)N2CCN(c3ccc4c(c3)CCC(=O)N4)CC2)cc1OC [vesnarinone] | 2.1
17 | NC[C@H]1CC[C@H](C(=O)O)CC1 [tranexamic acid] | −2
18 | CCC[C@H](N[C@@H](C)C(=O)N1[C@H](C(=O)O)C[C@@H]2CCCC[C@@H]21)C(=O)OCC [perindopril] | 0.9
19 | c1ccc(CC2=NCCN2)cc1 [tolazoline] | 2.6
20 | N[C@H]1C(O)O[C@H](CO)[C@@H](O)[C@@H]1O (stereo partly drawn) [D-glucosamine] | −2.8
21 | NS(=O)(=O)c1cc2c(cc1Cl)NC(C(Cl)Cl)NS2(=O)=O (stereo not drawn) [trichlormethiazide] | 0.6

Row | SMILES | Log P
22 | CCOC(=O)[C@H](CCc1ccccc1)N[C@@H](C)C(=O)N1Cc2ccccc2C[C@H]1C(=O)O [quinapril] | 1.2
23 | CCCCc1ccc(O)cc1O [rucinol] | 2.4
24 | N[C@@H](Cc1c[nH]cn1)C(=O)O [histidine] | −3.2
25 | NC(N)=Nc1nc(CSCCC(N)=NS(N)(=O)=O)cs1 [famotidine] | −0.6
26 | CCOC(=O)[C@H](CCc1ccccc1)N[C@H]1CS[C@H](c2cccs2)CN(CC(=O)O)C1=O [temocapril] | 1
27 | COc1ccccc1N1CCN(CCCNc2cc(=O)n(C)c(=O)n2C)CC1 [urapidil] | 1.5
28 | CCCC(=O)N1CCCN(c2nc(N)c3cc(OC)c(OC)cc3n2)CC1 [bunazosin] | 2.2
29 | COc1cc2nc(N3CCN(C(=O)C4CCCO4)CC3)nc(N)c2cc1OC (stereo not drawn) [terazosin] | 1.4
30 | COc1cc(C)nc(-n2nc(C)cc2OC)n1 [epirizole] | 1.3
31 | O=c1cc(CO)occ1O [kojic acid] | −0.9
32 | O=P(O)(O)C(O)(Cc1cccnc1)P(=O)(O)O [risedronate] | −3.5
33 | N[C@@H](Cc1c[nH]c2ccccc12)C(=O)O [tryptophan] | −1.1
34 | OC[C@H]1O[C@@H](Oc2ccc(O)cc2)[C@H](O)[C@@H](O)[C@@H]1O [arbutin] | −0.6
35 | Nc1cc(-c2ccncc2)c[nH]c1=O [amrinone] | −0.2
36 | O=C1O[C@H]([C@@H](O)CO)C(O)=C1O [L-ascorbic acid] | −1.6
37 | N[C@@H](CS)C(=O)O [L-cysteine] | −2.5
38 | Cc1c(OCC(F)(F)F)ccnc1C[S+]([O-])c1nc2ccccc2[nH]1 (stereo not drawn) [lansoprazole] | 2.8
39 | CC(C)NCC(O)c1ccc(NS(C)(=O)=O)cc1 (stereo not drawn) [sotalol] | 0.2
40 | CC(C)NCC(O)c1ccc(O)c(O)c1 (stereo not drawn) [isoprenaline] | −0.6
41 | NCCS(=O)(O)=S [thiotaurine] | −0.1
42 | CC(C)(C)NCC(O)CSc1nc(-c2ccc(C(N)=O)s2)cs1 (stereo not drawn) [arotinolol] | 2.3

Row | SMILES | Log P
43 | C=CC[C@@H]1/C=C(\C)C[C@H](C)C[C@H](OC)[C@H]2O[C@@](O)(C(=O)C(=O)N3CCCC[C@H]3C(=O)O[C@H](/C(C)=C/[C@@H]3CC[C@@H](O)[C@H](OC)C3)[C@H](C)[C@@H](O)CC1=O)[C@H](C)C[C@@H]2OC [tacrolimus] | 2.7
44 | CC(=O)N[C@H]1C(O)O[C@H](CO)[C@@H](O)[C@@H]1O (stereo partly drawn) [N-acetyl-D-glucosamine] | −1.7
45 | CCCCCCCCCCCCCC(=O)OC(C)C [IPM, isopropyl myristate] | 7.2
46 | COC(=O)[C@@H]1CC2=CC(=O)CC[C@]2(C)[C@@]23O[C@@H]2C[C@@]2(C)[C@@H](CC[C@@]24CCC(=O)O4)[C@H]13 [eplerenone] | 1.4
47 | O=C(O)CCCCCCCC(=O)O [azelaic acid] | 1.6
48 | CCOC(=O)Oc1ccc(CCNC(=O)[C@H](CCSC)NC(C)=O)cc1OC(=O)OCC [docarpamine] | 2.9
49 | CCOC(=O)[C@H](CCc1ccccc1)N[C@@H](C)C(=O)N1CCC[C@H]1C(=O)O [enalapril] | −0.1
50 | CN(CC1(C)CCCO1)S(=O)(=O)c1ccc(Cl)c(S(N)(=O)=O)c1 (stereo not drawn) [mefruside] | 0.9
51 | Oc1cccc(O)c1 [resorcin] | 0.8
52 | COc1ccc(CCNCC(O)COc2cccc(C)c2)cc1OC (stereo not drawn) [bevantolol] | 3
53 | Nc1cc(N2CCCCC2)nc(N)[n+]1[O-] [loniten] | 1.2
54 | O=C(NC(Cc1cc(=O)[nH]c2ccccc12)C(=O)O)c1ccc(Cl)cc1 (stereo not drawn) [rebamipide] | 2.4
55 | CCOC(=O)[C@H](CCc1ccccc1)N[C@@H](C)C(=O)N1[C@H](C(=O)O)C[C@H]2CCCC[C@@H]21 [trandolapril] | 2
56 | CC(C)(CO)[C@@H](O)C(=O)NCCC(=O)O [pantothenic acid] | −1.1
57 | OC[C@H]1O[C@H](OC[C@H]2O[C@H](O[C@]3(CO)O[C@H](CO)[C@@H](O)[C@@H]3O)[C@H](O)[C@@H](O)[C@@H]2O)[C@H](O)[C@@H](O)[C@H]1O [raffinose] | −5.8
58 | CCCCCCCC(=O)OCC(COC(=O)CCCCCCC)OC(=O)CCCCCCC [Tricaprylin, glycerin tricaprylate] | 8.9
59 | Nc1cc(N2CCCCC2)nc(N)[n+]1[O-] [minoxidil] | 1.2
60 | NS(=O)(=O)c1cc(C2(O)NC(=O)c3ccccc32)ccc1Cl (stereo not drawn) [chlorthalidone] | 0.9
61 | O=C(O)CCCC[C@@H]1SC[C@@H]2NC(=O)N[C@@H]21 [biotin] | 0.3
62 | Cc1[nH]c(=O)c(C#N)cc1-c1ccncc1 [milrinone] | 0
63 | O=C(C[S+]([O-])Cc1ccco1)NC/C=C\COc1cc(CN2CCCCC2)ccn1 (stereo not drawn) [lafutidine] | 1.4

Row | SMILES | Log P
64 | NCCc1ccc(O)c(O)c1 [dopamine] | −1
65 | C[C@H](N)C(=O)O [alanine] | −3
66 | C[C@H]1C[C@@H]2[C@H]([C@@H](O)C[C@@]3(C)[C@H]2CC[C@]3(O)C(=O)CO)[C@@]2(C)C=CC(=O)C=C12 [methylprednisolone] | 1.9
67 | Cc1cccc(Nc2ccncc2S(=O)(=O)NC(=O)NC(C)C)c1 [torasemide] | 2.7
68 | Cc1cc2c(cc1S(N)(=O)=O)S(=O)(=O)CCC2 [meticrane] | 0.5
69 | N[C@@H](CCC(=O)N[C@@H](CS)C(=O)NCC(=O)O)C(=O)O [glutathione] | −4.5
70 | Cn1c(NCCN(CCO)CCCc2ccc([N+](=O)[O-])cc2)cc(=O)n(C)c1=O [nifekalant] | 1.1
71 | Cc1c(C(C)C)c(=O)n(-c2ccccc2)n1C [isopropylantipyrine] | 1.7
72 | C[N+](C)(C)C[C@H](O)CC(=O)[O-] [L-carnitine] | −0.2
73 | C[C@H](CS)C(=O)N1CCC[C@H]1C(=O)O [captopril] | 0.3
74 | CCOC(=O)C1=C(COCCN)NC(C)=C(C(=O)OC)C1c1ccccc1Cl (stereo not drawn) [amlodipine] | 3
75 | CCN(CC)CCNC(=O)c1ccc(N)cc1 [procainamide] | 0.9
76 | N=C(N)NC(=O)Cc1c(Cl)cccc1Cl [guanfacine] | 2
77 | NNc1nncc2ccccc12 [hydralazine] | 0.7
78 | O[C@@H]1CO[C@H]2[C@@H]1OC[C@@H]2O [isosorbide] | −1.4
79 | CNC(=C[N+](=O)[O-])NCCSCc1csc(CN(C)C)n1 [nizatidine] | 1.6
80 | Cc1oncc1C(=O)Nc1ccc(C(F)(F)F)cc1 [leflunomide] | 2.6
81 | CN1CCN(CC(=O)N2c3ccccc3C(=O)Nc3cccnc32)CC1 [pirenzepine] | 0.1
82 | CC(C)(S)[C@@H](N)C(=O)O [D-penicillamine] | −1.8
83 | C[C@@](Cc1ccc(O)c(O)c1)(NN)C(=O)O [carbidopa] | −2.2
84 | COc1ccccc1O [guaiacol] | 1.3
